Test results reported in publication PMC11076983, “Baicalin and baicalein from Scutellaria baicalensis Georgi alleviate aberrant neuronal suppression mediated by GABA from reactive astrocytes” (CNS Neuroscience & Therapeutics, 2024).
Where two headings read alike, the source gives them in different places.

Target: T1, monoamine oxidase B (MAO-B) (Homo sapiens, UniProt P27338)
T1 construct: gene MAOB; Human recombinant MAO-B (Sigma, M7441)
T1 sequence (P27338 2-520): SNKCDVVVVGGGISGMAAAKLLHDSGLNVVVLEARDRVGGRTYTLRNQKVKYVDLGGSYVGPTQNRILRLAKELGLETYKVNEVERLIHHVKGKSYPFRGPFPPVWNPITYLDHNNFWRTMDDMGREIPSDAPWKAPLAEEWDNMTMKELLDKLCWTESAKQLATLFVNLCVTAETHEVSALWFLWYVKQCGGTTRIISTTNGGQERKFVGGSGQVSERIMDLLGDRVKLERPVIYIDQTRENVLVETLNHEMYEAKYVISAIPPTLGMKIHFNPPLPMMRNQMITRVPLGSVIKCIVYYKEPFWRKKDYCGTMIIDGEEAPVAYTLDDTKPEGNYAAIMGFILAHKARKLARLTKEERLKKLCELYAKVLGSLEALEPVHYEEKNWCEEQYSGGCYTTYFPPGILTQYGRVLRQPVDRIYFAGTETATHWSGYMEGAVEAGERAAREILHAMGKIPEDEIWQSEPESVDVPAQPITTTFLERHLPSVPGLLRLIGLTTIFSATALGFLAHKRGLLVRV
Test: in vitro MAO-B enzyme activity assay with recombinant human enzyme
Assay type: biochemical

| IC50 (read-out: IC50) | SMILES | IC50 |
| --- | --- | --- |
|  | O=c1cc(-c2ccccc2)oc2cc(O)c(O)c(O)c12 [baicalein] | 21 µM |
| 6.26 µM | O=C(O)[C@H]1O[C@@H](Oc2cc3oc(-c4ccccc4)cc(=O)c3c(O)c2O)[C@H](O)[C@@H](O)[C@@H]1O [baicalin] |  |
|  | COc1c(O)cc(O)c2c(=O)cc(-c3ccccc3)oc12 [wogonin] | 79.2 µM |
